Results taken from patent US20250230193A1, “CYCLIC COMPOUND HAVING SELECTIVE KRAS INHIBITORY EFFECT ON HRAS AND NRAS” (CHUGAI SEIYAKU KABUSHIKI KAISHA, priority 2022, published 2025).

Assays:
[1] = target: GDP-bound HRAS wild-type protein (Homo sapiens, UniProt P01112); assay: Binding to HRAS by surface plasmon resonance (SPR), Single Cycle Kinetics; conditions: KD ratio, GDP-bound HRAS wild-type vs GDP-bound KRAS wild-type, SPR
[2] = target: GDP-bound NRAS wild-type protein (Homo sapiens, UniProt P01111); assay: Binding to NRAS by surface plasmon resonance (SPR), Single Cycle Kinetics; conditions: KD ratio, GDP-bound NRAS wild-type vs GDP-bound KRAS wild-type, SPR
Sequence of GDP-bound NRAS wild-type protein (P01111 whole entry): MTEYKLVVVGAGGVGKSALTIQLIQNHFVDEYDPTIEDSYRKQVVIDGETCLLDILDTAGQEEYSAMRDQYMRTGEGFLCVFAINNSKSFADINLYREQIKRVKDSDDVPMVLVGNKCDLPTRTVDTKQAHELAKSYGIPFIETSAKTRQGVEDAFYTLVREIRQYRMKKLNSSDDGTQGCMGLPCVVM

Sequence of GDP-bound HRAS wild-type protein (P01112 whole entry): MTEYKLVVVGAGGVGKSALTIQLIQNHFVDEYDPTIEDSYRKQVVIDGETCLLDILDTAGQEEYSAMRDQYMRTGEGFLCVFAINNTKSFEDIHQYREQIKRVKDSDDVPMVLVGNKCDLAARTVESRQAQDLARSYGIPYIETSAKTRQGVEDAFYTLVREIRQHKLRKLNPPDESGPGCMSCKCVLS

CCO[C@@H]1C[C@H]2C(=O)NC3(CCC3)C(=O)N(C)[C@@H](C3CCCC3)C(=O)N(C)[C@H](C(=O)N3CCOCC3)CC(=O)N(C)[C@@H](Cc3ccccc3Cl)C(=O)N[C@@H]([C@@H](C)CC)C(=O)N(C)CC(=O)N(C)[C@H]3CCCCCN(C3=O)[C@@H](Cc3ccc(C(F)(F)F)cc3)C(=O)N(C)CC(=O)N[C@@H](CCc3cc(F)c(C(F)(F)F)c(F)c3)C(=O)N2C1 [PP0929]
HRAS/KRAS (ratio of KD value with respect to HRAS to KD value with respect to KRAS) [1]: B (a compound having 3 or more and less than 10 is denoted as B)
NRAS/KRAS (ratio of KD value with respect to NRAS to KD value with respect to KRAS) [2]: A (a compound having 10 or more and less than 20 is denoted as A)

CCO[C@@H]1C[C@H]2C(=O)NC3(CCC3)C(=O)N(C)[C@@H](C3CCCC3)C(=O)N(C)[C@H](C(=O)N3CCOCC3)CC(=O)N(C)[C@@H](Cc3ccccc3C)C(=O)N[C@@H]([C@@H](C)CC)C(=O)N(C)CC(=O)N(C)[C@H]3CCCCCN(C3=O)[C@@H](Cc3ccc(C(F)(F)F)cc3)C(=O)N(C)CC(=O)N[C@@H](CCc3cc(F)c(C(F)(F)F)c(F)c3)C(=O)N2C1 [PP0931]
HRAS/KRAS (ratio of KD value with respect to HRAS to KD value with respect to KRAS) [1]: B (a compound having 3 or more and less than 10 is denoted as B)
NRAS/KRAS (ratio of KD value with respect to NRAS to KD value with respect to KRAS) [2]: A (a compound having 10 or more and less than 20 is denoted as A)

CCO[C@@H]1C[C@H]2C(=O)NC3(CCC3)C(=O)N(C)[C@@H](C3CCCC3)C(=O)N(C)[C@H](C(=O)N3CCOCC3)CC(=O)N(C)[C@@H](Cc3cccc(C)c3)C(=O)N[C@@H]([C@@H](C)CC)C(=O)N(C)CC(=O)N(C)[C@H]3CCCCCN(C3=O)[C@@H](Cc3ccc(C(F)(F)F)cc3)C(=O)N(C)CC(=O)N[C@@H](CCc3cc(F)c(C(F)(F)F)c(F)c3)C(=O)N2C1 [PP0932]
HRAS/KRAS (ratio of KD value with respect to HRAS to KD value with respect to KRAS) [1]: B (a compound having 3 or more and less than 10 is denoted as B)
NRAS/KRAS (ratio of KD value with respect to NRAS to KD value with respect to KRAS) [2]: B (a compound having 3 or more and less than 10 is denoted as B)

CCO[C@@H]1C[C@H]2C(=O)NC3(CCC3)C(=O)N(C)[C@@H](C3CCCC3)C(=O)N(C)[C@H](C(=O)N3CCOCC3)CC(=O)N(C)[C@@H](Cc3ccc(C)cc3)C(=O)N[C@@H]([C@@H](C)CC)C(=O)N(C)CC(=O)N(C)[C@H]3CCCCCN(C3=O)[C@@H](Cc3ccc(C(F)(F)F)cc3)C(=O)N(C)CC(=O)N[C@@H](CCc3cc(F)c(C(F)(F)F)c(F)c3)C(=O)N2C1 [PP0933]
HRAS/KRAS (ratio of KD value with respect to HRAS to KD value with respect to KRAS) [1]: B (a compound having 3 or more and less than 10 is denoted as B)
NRAS/KRAS (ratio of KD value with respect to NRAS to KD value with respect to KRAS) [2]: A (a compound having 10 or more and less than 20 is denoted as A)

CCO[C@@H]1C[C@H]2C(=O)NC3(CCC3)C(=O)N(C)[C@@H](C3CCCC3)C(=O)N(C)[C@H](C(=O)N(C)C)CC(=O)N(C)[C@@H](Cc3ccccc3F)C(=O)N[C@@H]([C@@H](C)CC)C(=O)N(C)CC(=O)N(C)[C@H]3CCCCCN(C3=O)[C@@H](Cc3ccc(C(F)(F)F)cc3)C(=O)N(C)CC(=O)N[C@@H](CCc3cc(F)c(C(F)(F)F)c(F)c3)C(=O)N2C1 [PP0934]
HRAS/KRAS (ratio of KD value with respect to HRAS to KD value with respect to KRAS) [1]: B (a compound having 3 or more and less than 10 is denoted as B)
NRAS/KRAS (ratio of KD value with respect to NRAS to KD value with respect to KRAS) [2]: B (a compound having 3 or more and less than 10 is denoted as B)

CCO[C@@H]1C[C@H]2C(=O)NC3(CCC3)C(=O)N(C)[C@@H](C3CCCC3)C(=O)N(C)[C@H](C(=O)N(C)C)CC(=O)N(C)[C@@H](Cc3cccc(F)c3)C(=O)N[C@@H]([C@@H](C)CC)C(=O)N(C)CC(=O)N(C)[C@H]3CCCCCN(C3=O)[C@@H](Cc3ccc(C(F)(F)F)cc3)C(=O)N(C)CC(=O)N[C@@H](CCc3cc(F)c(C(F)(F)F)c(F)c3)C(=O)N2C1 [PP0935]
HRAS/KRAS (ratio of KD value with respect to HRAS to KD value with respect to KRAS) [1]: B (a compound having 3 or more and less than 10 is denoted as B)
NRAS/KRAS (ratio of KD value with respect to NRAS to KD value with respect to KRAS) [2]: B (a compound having 3 or more and less than 10 is denoted as B)

CCO[C@@H]1C[C@H]2C(=O)NC3(CCC3)C(=O)N(C)[C@@H](C3CCCC3)C(=O)N(C)[C@H](C(=O)N(C)C)CC(=O)N(C)[C@@H](Cc3ccc(F)cc3)C(=O)N[C@@H]([C@@H](C)CC)C(=O)N(C)CC(=O)N(C)[C@H]3CCCCCN(C3=O)[C@@H](Cc3ccc(C(F)(F)F)cc3)C(=O)N(C)CC(=O)N[C@@H](CCc3cc(F)c(C(F)(F)F)c(F)c3)C(=O)N2C1 [PP0936]
HRAS/KRAS (ratio of KD value with respect to HRAS to KD value with respect to KRAS) [1]: B (a compound having 3 or more and less than 10 is denoted as B)
NRAS/KRAS (ratio of KD value with respect to NRAS to KD value with respect to KRAS) [2]: B (a compound having 3 or more and less than 10 is denoted as B)

CCO[C@@H]1C[C@H]2C(=O)NC3(CCC3)C(=O)N(C)[C@@H](C3CCCC3)C(=O)N(C)[C@H](C(=O)N(C)C)CC(=O)N(C)[C@@H](Cc3ccc(F)c(F)c3)C(=O)N[C@@H]([C@@H](C)CC)C(=O)N(C)CC(=O)N(C)[C@H]3CCCCCN(C3=O)[C@@H](Cc3ccc(C(F)(F)F)cc3)C(=O)N(C)CC(=O)N[C@@H](CCc3cc(F)c(C(F)(F)F)c(F)c3)C(=O)N2C1 [PP0937]
HRAS/KRAS (ratio of KD value with respect to HRAS to KD value with respect to KRAS) [1]: B (a compound having 3 or more and less than 10 is denoted as B)
NRAS/KRAS (ratio of KD value with respect to NRAS to KD value with respect to KRAS) [2]: B (a compound having 3 or more and less than 10 is denoted as B)

CCO[C@@H]1C[C@H]2C(=O)NC3(CCC3)C(=O)N(C)[C@@H](C3CCCC3)C(=O)N(C)[C@H](C(=O)N(C)C)CC(=O)N(C)[C@@H](Cc3cccc(Cl)c3)C(=O)N[C@@H]([C@@H](C)CC)C(=O)N(C)CC(=O)N(C)[C@H]3CCCCCN(C3=O)[C@@H](Cc3ccc(C(F)(F)F)cc3)C(=O)N(C)CC(=O)N[C@@H](CCc3cc(F)c(C(F)(F)F)c(F)c3)C(=O)N2C1 [PP0939]
HRAS/KRAS (ratio of KD value with respect to HRAS to KD value with respect to KRAS) [1]: B (a compound having 3 or more and less than 10 is denoted as B)
NRAS/KRAS (ratio of KD value with respect to NRAS to KD value with respect to KRAS) [2]: B (a compound having 3 or more and less than 10 is denoted as B)

CCO[C@@H]1C[C@H]2C(=O)NC3(CCC3)C(=O)N(C)[C@@H](C3CCCC3)C(=O)N(C)[C@H](C(=O)N(C)C)CC(=O)N(C)[C@@H](Cc3ccc(Cl)cc3)C(=O)N[C@@H]([C@@H](C)CC)C(=O)N(C)CC(=O)N(C)[C@H]3CCCCCN(C3=O)[C@@H](Cc3ccc(C(F)(F)F)cc3)C(=O)N(C)CC(=O)N[C@@H](CCc3cc(F)c(C(F)(F)F)c(F)c3)C(=O)N2C1 [PP0940]
HRAS/KRAS (ratio of KD value with respect to HRAS to KD value with respect to KRAS) [1]: C (A compound having a KD ratio of 0.1 or more and less than 3 is denoted as C)
NRAS/KRAS (ratio of KD value with respect to NRAS to KD value with respect to KRAS) [2]: B (a compound having 3 or more and less than 10 is denoted as B)

CCO[C@@H]1C[C@H]2C(=O)NC3(CCC3)C(=O)N(C)[C@@H](C3CCCC3)C(=O)N(C)[C@H](C(=O)N(C)C)CC(=O)N(C)[C@@H](Cc3ccccc3C)C(=O)N[C@@H]([C@@H](C)CC)C(=O)N(C)CC(=O)N(C)[C@H]3CCCCCN(C3=O)[C@@H](Cc3ccc(C(F)(F)F)cc3)C(=O)N(C)CC(=O)N[C@@H](CCc3cc(F)c(C(F)(F)F)c(F)c3)C(=O)N2C1 [PP0941]
HRAS/KRAS (ratio of KD value with respect to HRAS to KD value with respect to KRAS) [1]: B (a compound having 3 or more and less than 10 is denoted as B)
NRAS/KRAS (ratio of KD value with respect to NRAS to KD value with respect to KRAS) [2]: B (a compound having 3 or more and less than 10 is denoted as B)
